Results reported in patent US20070027181A1, “Benzylisoquinoline derivative- or bisbenzylisoquinoline derivative-containing psychotropic agent, analgesic and/or antiphlogistic, and health food” (EDUCATION CENTER OF TRADITIONAL, priority 2004, published 2007).

Tests used:
Assay type in all cases: in vivo, Male ICR mice
[1] = test system: mice; experiment: locomotor activity (ultromotivity) test, evaluation of sedative action
Description: (§1) In the following Examples, all extracts and drugs used were dissolved in physiological saline before use for i.p. administration and the dose was 0.1 ml of physiological saline per 10 g of mouse body weight in either case. All extracts and drugs were suspended in physiological saline containing 1% sodium carboxymethylcellulose before use for oral administration and the dose was 0.1 ml of 1% sodium carboxymethylcellulose-containing physiological saline suspension per 10 g of mouse body weight in either case. Male ICR mice (Japan SLC) having a body weight of 25 to 30 g were used in the tests below unless otherwise stated, and were fed in advance at a room temperature of 23±1° C. and a relative humidity of 55±5% in the environment of a cycle of 12-hour-light from 7 a.m. to 7 p.m. and 12-hour-dark from 7 p.m. to 7 a.m. for 3 to 5 days. The mice were allowed to have water and feed freely.
Twenty five mice were grouped into five groups each having five mice, to which 5 mg/kg of N-methylcoclaurine hydrochloride (treatment group 1-1: i.p. administration), 50 mg/kg of neferine hydrochloride (treatment group 1-2: oral administration, and treatment group 1-3: i.p. administration), 50 mg/kg of liensinine hydrochloride (treatment group 1-4: oral administration), or physiological saline (negative control group 1-1: i.p. administration) was administered. The ultromotivity of the mice was analyzed by using a locomotor activity monitoring system (NS-AS01, Neuroscience Inc.). The ultromotivity measurements were performed at an interval of 5 minutes for 60 minutes, and the ultromotivity was judged from the count at each measuring time.
Similar tests were conducted by i.p. administration of 25 mg/kg of N-norarmepavine (treatment group 1-5, n=6), 25 mg/kg of O,O-dimethylcoclaurine (treatment group 1-6, n=5), 10 mg and 25 mg/kg of armepavine (respectively, treatment group 1-7, n=6, and treatment group 1-8, n=6), 10 mg and 25 mg/kg of O-methylarmepavine (respectively, treatment group 1-9, n=6, and treatment group 1-10, n=6), and physiological saline (negative control group 1-2, n=5). The ultromotivity measurements were performed at an interval of five minutes for 60 minutes, and the ultromotivity was subjected to a significant difference test (Tukey's method) by using the counts at respective measuring times.
Tests were performed by using mice administered intraperitoneally with 25 mg/kg of neferine hydrochloride (treatment group 7-1, n=6), 25 mg/kg of liensinine hydrochloride (treatment group 7-2, n=6), and physiological saline (negative control group, n=6) as well as 5 mg/kg of diazepam (positive control group, n=6) and a rotarod equipment (Ugo Basile, Italy) and a locomotor activity monitoring system (NS-AS01, Neuroscience Inc.). The rotarod test was performed by placing a mouse on a rod having a diameter of 4 cm rotating at a speed of 8 rpm 15 minutes after drug administration and observing whether the mouse can stay on the rod without falling for three minutes. The individuals that had fallen from the rotating rod in the period of 3 minutes were judged that they are with motor coordination disorder. […] In addition, the ultromotivity measurements were performed at an interval of five minutes for 60 minutes, and the ultromotivity results were subjected to a significant difference test (Tukey's method) by using the counts at respective measuring times.

[2] = test system: mice; experiment: rotarod test (motor coordination); settings: 5 mg/kg i.p., n=6, 15 minutes after administration, 8 rpm, three minutes
Description: as §1
Tests were performed by using mice administered intraperitoneally with 25 mg/kg of neferine hydrochloride (treatment group 7-1, n=6), 25 mg/kg of liensinine hydrochloride (treatment group 7-2, n=6), and physiological saline (negative control group, n=6) as well as 5 mg/kg of diazepam (positive control group, n=6) and a rotarod equipment (Ugo Basile, Italy) and a locomotor activity monitoring system (NS-AS01, Neuroscience Inc.). […]

[3] = test system: mice; experiment: acetic acid-induced writhing test
Description: as §1
An acetic acid-induced writhing test is a method wherein analgesic action of a compound is determined utilizing this. The number of this writhing is compared between a physiological saline-administered control group and a test drug-administered group, and suppression of the number of writhing by the test drug is investigated thereby assessing its analgesic action.
Seven to ten mice per group were used. Neferine hydrochloride was subcutaneously administered to mice at their back at a dose of 5 mg/kg, 10 mg/kg, 25 mg/kg, 50 mg/kg or 100 mg/kg and, after 15 minutes, a 0.6% by weight solution of acetic acid in water was intraperitoneally administered at 0.1 mL/10 g body weight. The number of writhing was counted every ten minutes for 30 minutes from immediately after acetic acid administration (0 to 10 min, 10 to 20 min, 20 to 30 min). In addition, the total number of writhing for 30 minutes from immediately after acetic acid administration was also obtained. Regarding the resulting measurements, a significant difference test was performed by a Dunnet multiple comparison test method.
According to the same manner as in acetic acid-induced writhing test-1 except that acetic acid was intraperitoneally administered 30 minutes after subcutaneous administration of neferine in the aforementioned acetic acid-induced writhing test-1, an acetic acid-induced writhing test was performed. However, the dose of neferine was only 50 mg/kg.
According to the same manner as in the acetic acid-induced writhing test-1 except that acetic acid was intraperitoneally administered 30 minutes after oral administration of neferine in the aforementioned acetic acid-induced writhing test-1, an acetic acid-induced writhing test was performed. However, five to six mice per group were used. The dose of neferine was 10 mg/kg and 50 mg/kg. Further, aspirin was used as a positive control drug. The dose of aspirin was 50 mg/kg.
(§2) According to the same manner as in acetic acid-induced writhing test-1 except that armepavine was used in place of neferine in the aforementioned acetic acid-induced writhing test-1, an acetic acid-induced writhing test was performed. However, the dose of armepavine was 5 mg/kg and 10 mg/kg.
as §2, with “O-methylarmepavine” for “armepavine”

[4] = test system: mice; experiment: formalin pad test; settings: 10 mg/kg i.p. 15 minutes before formalin
Description: as §1
A formalin pad test is a method in which, when formalin is subcutaneously administered to a pad of a mouse, the mouse causes licking, and analgesic action of a test drug is determined by utilizing this. Suppression of licking in a test drug-administered group was investigated relative to a physiological saline-administered control group, and analgestic action was evaluated.
Six mice per group were used. Neferine hydrochloride was intraperitoneally administered at a dose of 25 mg/kg, 50 mg/kg or 100 mg/kg and, after fifteen minutes, 20 μl of a 0.2% by weight formalin aqueous solution was subcutaneously administered to a right hind paw pad. After formalin administration, licking was regarded as a provisional pain reaction, and a licking sustaining time in a first phase from immediately after formalin administration to five minutes after formalin administration and in a second phase from 15 minutes to 30 minutes after formalin administration was measured. Regarding the resulting measurements, a significant difference test was performed by a Dunnet multiple comparison test method.
According to the same manner as in Example 13 except that 10 mg/kg of O-methylarmepavine was intraperitoneally administered in place of neferine, a formalin pad test was performed.

[5] = test system: mice; experiment: histamine-induced paw edema test; settings: 10 mg/kg i.p. 15 minutes before histamine 10 μg; 12 minutes after histamine
Description: as §1
Six mice per group were used. […] The thickness of the right hind paw was measured immediately before histamine administration and 12 minutes after histamine administration. The thickness immediately before administration was subtracted from the thickness of the paw after histamine administration, and this was adopted as a thickness of paw edema. As apparent from TABLE 18, paw edema due to histamine was suppressed by neferine. […]

[6] = 50 mg/kg oral 30 minutes before acetic acid
[7] = 5 mg/kg s.c. 15 minutes before acetic acid
[8] = 10 mg/kg s.c. 15 minutes before acetic acid

SMILES | Number of writhing 0-10 min. [3, 7] | Number of writhing 0-30 min. [3, 7] | Number of writhing 10-20 min. [3, 7] | Number of writhing 20-30 min. [3, 7] | Number of writhing 0-10 min. [3, 8] | Number of writhing 0-30 min. [3, 8] | Number of writhing 10-20 min. [3, 8] | Number of writhing 20-30 min. [3, 8] | further results
COc1cc2c(cc1OC)[C@@H](Cc1ccc(O)c(Oc3cc4c(cc3OC)CCN(C)[C@@H]4Cc3ccc(O)cc3)c1)N(C)CC2 [liensinine] |  |  |  |  |  |  |  |  | Ultromotivity (count) 30 minutes ([1]; 50 mg/kg oral): 600 count; Ultromotivity (count) 60 minutes ([1]; 50 mg/kg oral): 800 count
CN1C(=O)CN=C(c2ccccc2)c2cc(Cl)ccc21 [diazepam] |  |  |  |  |  |  |  |  | Number of individuals fallen [2]: 5
COc1cc2c(cc1O)[C@@H](Cc1ccc(O)cc1)N(C)CC2 [N-methylcoclaurine] |  |  |  |  |  |  |  |  | sedative activity compared with neferine and liensinine ([1]; 5 mg/kg i.p. versus 50 mg/kg of the bisbenzylisoquinolines): extremely higher activity; Ultromotivity (count) 30 minutes ([1]; 5 mg/kg i.p.): 250 count; Ultromotivity (count) 60 minutes ([1]; 5 mg/kg i.p.): 250 count
CC(=O)Oc1ccccc1C(=O)O [aspirin, reference compound] |  |  |  |  |  |  |  |  | Number of writhing 0-10 min. [3, 6]: 10.8 ± 3.41; Number of writhing 0-30 min. [3, 6]: 3.34 ± 5.35; Number of writhing 10-20 min. [3, 6]: 15.2 ± 1.83; Number of writhing 20-30 min. [3, 6]: 7.4 ± 1.23
COc1ccc(C[C@@H]2c3cc(OC)c(OC)cc3CCN2C)cc1 [O-methylarmepavine] | 11.6 ± 1.41 | 30.2 ± 1.90 | 11.2 ± 2.25 | 7.4 ± 1.52 | 5.9 ± 1.73 | 13.3 ± 1.69 | 4.3 ± 1.19 | 3.1 ± 0.58 | Licking sustaining time (second) First phase ([4]; 0 to 5 minutes): 70.9 ± 11.24 s; Licking sustaining time (second) Second phase ([4]; 15 to 30 minutes): 126.9 ± 18.4 s; Thickness of paw edema (mm) [5]: 0.37 ± 0.06 mm
COc1cc2c(cc1OC)C(Cc1ccc(O)cc1)N(C)CC2 (centres unmarked) [armepavine] | 19.0 ± 3.21 | 41.7 ± 5.24 | 14.7 ± 1.92 | 9.4 ± 1.81 | 8.6 ± 1.41 | 24.6 ± 4.23 | 10.7 ± 2.24 | 5.3 ± 1.39 | 
